The experiment addresses T1, murine IP10-AP (IP-10 alkaline phosphatase fusion protein) (UniProt P05187+P17515).
T1 construct: made in house; host or cells: NIH-3T3 clone 18.G5 (conditioned medium)
The experiment can be described thus: glycosaminoglycan inhibition of IP10-AP binding to A20 B cells. The note with it: 15 nM mIP10-AP, 2 hours on ice; for inhibition of IP10-AP binding: at a concentration 100× below 1 mg/ml. The protocol:
107 A20 cells were incubated with 15 nM mIP10-AP in the presence of the indicated concentrations of heparin (H), heparan sulfate (HS), chondroitin sulfate B (CSB) and chondroitin sulfate A (CSA) for 2 hours on ice. Cells were then washed and bound IP10-AP assayed.
Binding Assays. For non-adherent cells, […] were washed 1× with ice-cold binding buffer (HBSS/10 mM Hepes/0.1% ETSA) and resuspended in the indicated concentration of IP10-AP and competitors in a total of […] ice-cold binding buffer. Binding was carried out for 2 hrs on ice with occasional mixing. Cells were washed 5× with ice cold binding buffer by repeated centrifugation at 4° C. Cell bound AP activity was determined by lysing cells in […] 10 mM Tris (pH 8.0)/1% Triton X-100, heating at 65° C. for 10 min to inactivate cellular alkaline phosphatase, and then centrifuging at 14,000×g for 10 min. 50 ml of the soluble lysate was then mixed with 50 ml 2× SEAP buffer in a 96 well plate at room temperature and the colormetric product was assayed in a kinetic plate reader at A405. For adherent cells with higher numbers of binding sites, binding was determined in 6 well cluster plates. Cells were washed 2× with ice-cold binding buffer and incubated with the indicated concentration of IP10-AP and competitor in a total of 500 ml of ice-cold binding buffer for 2 hrs in the cold room on a rocker platform. […] Non-specific binding was determined in one of two ways. For the calculation of the equilibrium constant, non-specific binding was determined by adding […] at each concentration of IP10-AP and performing the binding experiments in parallel exactly as described above. Specific binding was determined by subtracting background from total binding. Specific binding data was analyzed with the binding equation B=(Bmax×F)/(Kd+F) (where B is bound ligand and F is free ligand) (28) using the program KaleidaGraph on a Macintosh computer. […] 125I-IP10 binding to cells was performed essentially as described above for IP10-AP binding except the cell pellet with bound IP-10 was counted in a gamma-counter. […]

T1 sequence (P17515+P05187 fused): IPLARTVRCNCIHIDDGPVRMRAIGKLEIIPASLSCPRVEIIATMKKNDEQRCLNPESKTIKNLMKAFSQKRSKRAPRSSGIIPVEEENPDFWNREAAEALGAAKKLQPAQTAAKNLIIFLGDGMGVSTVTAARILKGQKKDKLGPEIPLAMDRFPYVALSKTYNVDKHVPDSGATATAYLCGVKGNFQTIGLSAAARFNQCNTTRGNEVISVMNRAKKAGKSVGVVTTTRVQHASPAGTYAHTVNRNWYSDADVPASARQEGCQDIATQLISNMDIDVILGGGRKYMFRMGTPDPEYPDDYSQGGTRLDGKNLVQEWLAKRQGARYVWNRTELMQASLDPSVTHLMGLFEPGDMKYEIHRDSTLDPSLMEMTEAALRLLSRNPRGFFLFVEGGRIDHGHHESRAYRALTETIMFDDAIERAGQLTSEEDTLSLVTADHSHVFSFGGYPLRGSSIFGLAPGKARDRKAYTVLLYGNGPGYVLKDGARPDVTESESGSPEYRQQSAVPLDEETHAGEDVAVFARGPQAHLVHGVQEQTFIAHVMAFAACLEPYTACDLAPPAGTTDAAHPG

Take chondroitin sulfate A: the “effect on IP10-AP binding” value (1 mg/ml) is listed as “no effect”.

Turning to heparan sulfate, the “inhibition of IP10-AP binding” value is “complete inhibition”.

On to heparin, for which the “inhibition of IP10-AP binding” value is on record as “complete inhibition”.

Values taken from US5824299A, “Modulation of endothelial cell proliferation with IP-10” (President & Fellows of Harvard College, priority 1995, dated 1998).
